Experiment [1] has as its target T1, FimH (Escherichia coli, UniProt P08191). The experiment is described as follows: SPR, competition in solution with immobilized Fab 1C10. Format: binding.
Target sequence in this assay (P08191 22-179): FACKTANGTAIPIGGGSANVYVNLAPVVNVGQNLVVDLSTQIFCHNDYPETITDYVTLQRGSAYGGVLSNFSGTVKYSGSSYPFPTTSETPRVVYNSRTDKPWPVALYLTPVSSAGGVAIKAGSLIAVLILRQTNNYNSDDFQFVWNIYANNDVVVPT
The target in experiment [2] is T1, FimH. The experiment is described as follows: inhibition of FimH-dependent bacterial adhesion to […] bladder cells, fimH-negative control. In kind it is cell-based. Also noted: J96 FimH expressed from plasmid pMMB66 on type 1 pili of AAEC185(pUT2002) E. coli.
Target sequence in this assay (P08191 22-300): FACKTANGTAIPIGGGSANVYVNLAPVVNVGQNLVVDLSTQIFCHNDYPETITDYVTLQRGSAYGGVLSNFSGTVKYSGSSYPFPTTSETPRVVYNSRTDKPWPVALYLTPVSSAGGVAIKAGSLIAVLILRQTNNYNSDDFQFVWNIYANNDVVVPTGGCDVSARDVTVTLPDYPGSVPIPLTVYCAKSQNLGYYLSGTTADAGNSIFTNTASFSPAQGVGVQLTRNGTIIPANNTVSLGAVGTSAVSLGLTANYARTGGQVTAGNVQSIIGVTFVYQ
The target of experiment [3] is T1, FimH. The experiment in a line: co-crystal structure, […] Å. In kind it is binding.
Target sequence in this assay (P08191 22-179): as the sequence (P08191 22-179) above

Where two headings read alike, the source gives them in different places.

At FimH [1], `OC[C@H]1O[C@H](O[C@H]2[C@H](O)[C@@H](CO)OC(O)[C@H]2O)[C@@H](O)[C@@H](O)[C@@H]1O` (mixture of isomers) [Manα1,3Man] displayed a Kd of 281 nM.

Consider `CCCCCCCO[C@H]1O[C@H](CO)[C@@H](O)[C@H](O)[C@@H]1O` [HM, heptyl α-D-mannose], for which, on FimH [2], the “inhibition of FimH-dependent bacterial adhesion to 5637 bladder cells, fimH-nega” value is listed as “HM is more efficient at reducing FimH-mediated bacterial adherence, in accordance with its higher affinity for FimH”.

In the case of `CO[C@@H]1O[C@H](CO)[C@@H](O)[C@H](O[C@H]2O[C@H](CO)[C@@H](O)[C@H](O)[C@@H]2O)[C@@H]1O` [Manα1,3ManβOMe], the Kd at FimH [1] (read-out: Kd) turned out to be 112 nM.

Take `CC(=O)N[C@H]1[C@H](O[C@H]2[C@H](O)[C@@H](NC(C)=O)C(O)O[C@@H]2CO)O[C@H](CO)[C@@H](O[C@@H]2O[C@H](CO[C@H]3O[C@H](CO)[C@@H](O)[C@H](O)[C@@H]3O)[C@@H](O)[C@H](O[C@H]3O[C@H](CO)[C@@H](O)[C@H](O)[C@@H]3O)[C@@H]2O)[C@@H]1O` (stereo partly shown) [oligomannose-3]: the “co-crystal structure, 2.1 Å” value on FimH [3] is “Oligomannose-3 has been crystallized in complex with the FimH RBD”.

The record behind these values is PMC2323111, “Intervening with Urinary Tract Infections Using Anti-Adhesives Based on the Crystal Structure of the FimH–Oligomannose-3 Complex” (PLoS ONE, 2008).
